Our source for the IC50 values is ChEMBL document CHEMBL1140621, “2D-autocorrelation descriptors for predicting cytotoxicity of naphthoquinone ester derivatives against oral human epidermoid carcinoma” (Bioorg Med Chem, 2007).

This assay relates to KB. Kind of assay: Cytotoxicity against human KB cells. In kind it is functional, cell-based.

One may read the IC50 as the midpoint of a concentration-inhibition curve. `COc1cc(C(=O)OCC(C)(C)CC2=CC(=O)c3ccccc3C2=O)c(OC)c2ccccc12`: the IC50 came to 12.5 µM. That is a double-digit micromolar value.
